What was measured:
MTLn3 = assay: 3D collagen invasion assay of MTLn3 carcinoma cells (macrophage co-culture or BMM conditioned media); format: cell-based; conditions: KO CM with exogenously added 25 nM EGF (FIG. 2C)
Description: FIG. 1A-1D. WASP is required for macrophage-dependent breast carcinoma cell invasion. (A) Schematic illustration of the 3D invasion assay. (B) X-Z reconstruction of confocal images of 3D invasion assay using celltracker green labeled carcinoma cells (MTLn3) cultured on their own or co-cultured with celltracker red labeled primary bone marrow derived macrophages (BMM) isolated from either wild type (WT) or WASP knockout (WASP−/−) mice. Dotted line indicates the arbitrary threshold for measuring invasion at 20 μm (˜2 cell diameter). Quantification of cell tracker dye labeled (C) macrophage and (D) MTLn3 invasion. Fluorescence from cells was recorded at 5 μm step size. Collagen invasion is plotted as fraction of cells where fluorescence intensities above 20 μm are divided by total fluorescence from the entire stack (n=3 mice per genotype, age and sex matched). […]
FIG. 2A-2C. […] (A) Quantification of the MTLn3 invasion by MTLn3 cells alone, in response to wildtype BMM conditioned media (WT-CM) or conditioned media from WASP deficient mice (+KO CM) p<** 0.01 ***0.001 compared to wild-type macrophage conditioned media (WT CM). (B) Quantification of the MTLn3 invasion by MTLn3 cells alone, with wildtype BMM conditioned media (WT-CM) alone or with control IgG (Ctrl IgG) or with two different neutralizing anti-EGF antibodies generated in goat or rabbit (nEGF-G or nEGF-R). […]

MTLn3 tumor = assay: in vivo needle invasion assay; design: species or system mice; conditions: needle with EGF vs buffer, 4 hours (FIG. 6)
Method: FIG. 6A-6B. WASP is required for macrophage dependent carcinoma cell invasion in vivo. (A) Schematic illustration of in vivo invasion assay. (B) Quantification of the number of cells collected into the needle after 4 hours with EGF or without EGF (buffer) from wildtype, WASP+/− or WASP−/− mice bearing MTLn3 tumor. Cell counting was performed single blinded where the counter was not aware of the genotype of the mice. n=4 independent WT and 4 WASp−/− mice used) Error bars signify SEM. ** p<0.01 compared to buffer and EGF needle in WASP−/− mice.
The presence and absence of WASP in tumors was further characterized to determine the precise defect in the absence of WASP that led to reduced metastasis. […] Carcinoma cell invasiveness in the tumor was monitored and analyzed using a well established in vivo needle invasion assay that mimics the invasion of carcinoma cells into a blood vessel, according to Wyckoff et al. (Wyckoff, Segall et al. 2000). […] Additionally, a reduction was also observed in the motility of carcinoma cells in the tumors of WASP deficient mice as compared with control mice (FIG. 7).

WASP = target: T1, WASP (Homo sapiens, UniProt P42768); conditions: cited from earlier work
T1 sequence (P42768 1-502): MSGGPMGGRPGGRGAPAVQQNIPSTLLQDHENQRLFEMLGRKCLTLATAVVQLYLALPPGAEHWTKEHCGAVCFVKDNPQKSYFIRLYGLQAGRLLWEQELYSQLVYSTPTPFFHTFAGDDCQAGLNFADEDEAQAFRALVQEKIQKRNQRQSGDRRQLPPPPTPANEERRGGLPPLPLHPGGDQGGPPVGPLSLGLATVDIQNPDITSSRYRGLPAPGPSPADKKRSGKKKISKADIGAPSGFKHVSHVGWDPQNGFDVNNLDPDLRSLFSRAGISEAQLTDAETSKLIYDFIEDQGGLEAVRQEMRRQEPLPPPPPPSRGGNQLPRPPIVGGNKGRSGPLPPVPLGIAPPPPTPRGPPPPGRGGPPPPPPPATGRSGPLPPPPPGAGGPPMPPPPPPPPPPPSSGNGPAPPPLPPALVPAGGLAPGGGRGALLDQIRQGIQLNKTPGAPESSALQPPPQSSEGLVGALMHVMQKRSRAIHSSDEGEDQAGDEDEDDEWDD

[1] = test system: intracellular levels of ATP; conditions: non-specific effects; cited from earlier work
N-WASP = N-WASP (Homo sapiens, UniProt O00401); conditions: Peterson et al., 2004; cited from earlier work
Sequence of N-WASP (O00401 whole entry, species assumed): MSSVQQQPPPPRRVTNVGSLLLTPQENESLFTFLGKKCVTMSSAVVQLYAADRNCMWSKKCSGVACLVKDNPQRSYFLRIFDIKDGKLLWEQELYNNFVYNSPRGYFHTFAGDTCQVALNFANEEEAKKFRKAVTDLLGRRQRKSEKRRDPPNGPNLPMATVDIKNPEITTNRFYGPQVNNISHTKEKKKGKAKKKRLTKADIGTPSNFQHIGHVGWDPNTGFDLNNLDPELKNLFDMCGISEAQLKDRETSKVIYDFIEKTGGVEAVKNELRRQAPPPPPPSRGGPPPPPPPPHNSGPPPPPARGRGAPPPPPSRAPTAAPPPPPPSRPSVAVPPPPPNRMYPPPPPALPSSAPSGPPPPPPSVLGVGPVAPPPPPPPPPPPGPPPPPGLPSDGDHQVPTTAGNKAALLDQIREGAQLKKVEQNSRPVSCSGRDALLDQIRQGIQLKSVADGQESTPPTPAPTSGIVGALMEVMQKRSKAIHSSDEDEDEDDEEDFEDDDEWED

Molecule	MTLn3 invasion with WASP deficient BMM conditioned media (MTLn3)	number of carcinoma cells collected into needle (MTLn3 tumor; tumor bearing WASP-deficient mice)	number of carcinoma cells collected into needle (MTLn3 tumor; tumor bearing control mice)	inhibition of WASP (WASP)	intracellular levels of ATP [1]	inhibition of N-WASP (N-WASP)
EGF: epidermal growth factor, carcinoma cell chemoattractant (NSDSECPLSHDGYCLHDGVCMYIEALDKYACNCVVGYIGERCQYRDLKWWELR; UniProt P01133 971-1023, looked up)	restored carcinoma cell invasion	no difference in the number of cells collected	significantly enhanced the number of carcinoma cells collected into a needle			
CN(C)C[C@H](O)Cn1c2ccc(Br)cc2c2cc(Br)ccc21 (racemic) [wiskostatin]				also inhibits WASP	lowers the intracellular levels of ATP	inhibitor of N-WASP

— patent publication US20120077734A1, “Methods and assays for treating conditions in which macrophages play a pathogenic role” (priority 2010, published 2012)
